Results on 3 molecules are retold here after paper PMC6895048, “4,5-Disubstituted 1,2,3-triazoles: Effective Inhibition of Indoleamine 2,3-Dioxygenase 1 Enzyme Regulates T cell Activity and Mitigates Tumor Growth” (Scientific Reports, 2019).

Data set [1] deals with T1, IDO1 (Homo sapiens, UniProt P14902). The data set can be described thus: Cellular IDO1 activity assay in IFN-γ induced MDA-MB-231 cells. In kind it is cell-based. Also on record: induce the expression of the native IDO1 enzyme from its mRNA in the MDA-MB-231 cells; endogenous in cells; host or cells: MDA-MB-231 cells induced with human IFN-γ (50 ng/mL). To be noted: IDO1 expression induced by human IFN-γ (50 ng/mL); mean of three. How it is done: The cellular enzyme activity assay was performed according to the reported procedure with minor modifications[19],[27]–[30],[33],[54]. Briefly, MDA-MB-231 breast cancer cells were selected for this assay because of the presence of IDO1 mRNA in this cell line. First, cells were grown in DMEM/F12 complete media overnight. Then different concentration of human interferon-gamma (IFN-γ) (from 5–1000 ng/mL) was added to it and incubated for 48 hours. This treatment is reported to allow over-expression of IDO1 enzyme in MDA-MB-231 cells. […] Sterile cell-culture grade PBS was used to wash the cells by centrifugation technique. Then, the pellet was lysed in 10 mM HEPES buffer by passing through a sterile syringe. The lysate was used for standard IDO1 assay as mentioned earlier. The relative amount of N-formylkynurenine generated in the presence of the different concentration of IFN-γ was used to optimize the required concentration of IFN-γ for the IDO1 inhibition assay. […] Cells stimulated with IFN-γ alone were used as negative control, while cells stimulated with L-Trp without compound served as positive control. The cells were washed with sterile cell culture grade PBS and lysed in 10 mM HEPES buffer by sterile syringe. The lysate was used for standard IDO1 assay, as mentioned earlier, and the extent of IDO1 enzyme inhibition was determined for the selected compounds.

The next data set concerns the target T2, TDO enzyme (Homo sapiens, UniProt P48775).
T2 construct: 6xHis (N); made in house; host or cells: Escherichia coli BL21 (DE3) (pET 28a vector)
The data set can be described thus: HPLC based TDO inhibition assay. It is filed as biochemical. How it is done:
(§1) HPLC based IDO1, and TDO inhibition assays were performed according to the earlier reported procedure[19],[27]–[30]. The reaction mixture (250 µL) contained KPB (100 mM, pH 6.5 for IDO1 and 50 mM, pH 8.0 for TDO), sodium ascorbate (20 mM), methylene blue (10 µM), catalase (240 nM, from bovine liver, Sigma), L-Trp (150 µM), purified enzyme (40 nM for IDO1 and 25 nM for TDO), DMSO (0.05%, v/v), Triton-X 100 (0.01%, v/v) and inhibitors. The concentration of the compound was varied from 100 µM to 32 nM by serial dilution. The mixture was incubated at 37 °C for 1 hour in the absence and presence of the synthesized compounds. The reaction was then quenched using 50 µL of 30% (w/v) trichloroacetic acid and incubated at 65 °C for additional 15 minutes to allow complete hydrolysis of N-formylkynurenine to kynurenine. After that, the mixture was centrifuged at 10,000 rpm for 10 minutes, and 100 µL of clear solution was transferred to another tube for HPLC analysis. Then, 20 µL of the reaction mixture was then injected through Ascentis® express C18, 2.7 µm HPLC column with a flow rate of 0.5 mL/minute of the mobile phase containing 50% sodium citrate buffer (40 mM, pH 2.25) and 50% methanol (v/v) with 400 µM SDS. The area under the curve at 365 nm chromatogram corresponding to the kynurenine formation was recorded, and % of inhibition was calculated using standard curve prepared with pure kynurenine (from Sigma) under similar experimental conditions.

Data set [2] concerns the target T1, IDO1. The data set is described as follows: Kynurenine assay by HPLC analysis, IDO1. In kind it is biochemical. Also noted: made in house; host or cells: Escherichia coli M15 (pQE30 vector with pREP4 plasmid). How it is done:
as §1

For data set [3], the target named is T3, purified human TDO enzyme (Homo sapiens, UniProt P48775).
T3 construct: 6xHis (N); made in house; host or cells: Escherichia coli BL21 (DE3) (pET 28a vector)
The data set is described as follows: TDO inhibition assay by the spectrometric method. In kind it is biochemical. To be noted: spectrophotometric. How it is done: Both IDO1 and TDO inhibition assays were performed according to the reported procedures[26]–[30],[50],[51]. The solubility of the compounds in water was either moderate or poor. […] In the assay system, the minimum and maximum amount of DMSO was 0.02% and 2%, respectively. The standard reaction mixture (500 μL) containing KPB (100 mM, pH 6.5 for IDO1 enzyme and 50 mM, pH 8.0 for TDO enzyme), sodium ascorbate (20 mM), methylene blue (10 µM), catalase (240 nM, from bovine liver), L-Trp (150 µM), purified enzyme (40 nM for IDO1 and 25 nM for TDO), DMSO (0.05%, v/v), Triton-X 100 (0.01%, v/v) and inhibitors was incubated at 37 °C for 1 hour. The concentration of the inhibitors was varied from 100 µM to 32 nM by serial dilution technique. Then, the reaction was quenched with 100 µL of 30% (w/v) trichloroacetic acid and was incubated for further 15 minutes at 65 °C. After that, 2% (w/v) pDMAB was used to quantify the amount of kynurenine formation. The absorbance of the reaction mixture was recorded by UV-Vis spectrophotometer at 480 nm. The Km = 59.76 µM and Kcat = 6.18 sec^−1.

In data set [4] the target is T4, purified human IDO1 enzyme (Homo sapiens, UniProt P14902).
T4 construct: made in house; host or cells: Escherichia coli M15 (pQE30 vector with pREP4 plasmid)
The data set is described as follows: IDO1 inhibition assay by the spectrometric method (pDMAB). It is filed as biochemical. How it is done: Both IDO1 and TDO inhibition assays were performed according to the reported procedures[26]–[30],[50],[51]. […] In the assay system, the minimum and maximum amount of DMSO was 0.02% and 2%, respectively. […] The concentration of the inhibitors was varied from 100 µM to 32 nM by serial dilution technique. Then, the reaction was quenched with 100 µL of 30% (w/v) trichloroacetic acid and was incubated for further 15 minutes at 65 °C. After that, 2% (w/v) pDMAB was used to quantify the amount of kynurenine formation. The absorbance of the reaction mixture was recorded by UV-Vis spectrophotometer at 480 nm.

Data set [5] concerns IDO1. To be noted: cited from earlier work.
For data set [6] the following is noted: cited from earlier work.
Data set [7] has as its system IDO1. To be noted: cited from earlier work. This is another data set of the same source.

T1 sequence (P14902 whole entry): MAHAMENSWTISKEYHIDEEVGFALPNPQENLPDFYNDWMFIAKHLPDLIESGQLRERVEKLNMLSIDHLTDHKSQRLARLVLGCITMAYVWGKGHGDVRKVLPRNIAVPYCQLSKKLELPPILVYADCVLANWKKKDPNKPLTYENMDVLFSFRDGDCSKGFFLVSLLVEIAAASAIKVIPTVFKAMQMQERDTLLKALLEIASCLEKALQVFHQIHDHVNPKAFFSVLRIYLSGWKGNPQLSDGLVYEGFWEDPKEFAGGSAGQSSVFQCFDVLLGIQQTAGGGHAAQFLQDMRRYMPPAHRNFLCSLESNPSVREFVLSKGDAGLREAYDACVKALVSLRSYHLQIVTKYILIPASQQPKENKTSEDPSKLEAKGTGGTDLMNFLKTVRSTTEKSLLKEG
T2 sequence (P48775 whole entry): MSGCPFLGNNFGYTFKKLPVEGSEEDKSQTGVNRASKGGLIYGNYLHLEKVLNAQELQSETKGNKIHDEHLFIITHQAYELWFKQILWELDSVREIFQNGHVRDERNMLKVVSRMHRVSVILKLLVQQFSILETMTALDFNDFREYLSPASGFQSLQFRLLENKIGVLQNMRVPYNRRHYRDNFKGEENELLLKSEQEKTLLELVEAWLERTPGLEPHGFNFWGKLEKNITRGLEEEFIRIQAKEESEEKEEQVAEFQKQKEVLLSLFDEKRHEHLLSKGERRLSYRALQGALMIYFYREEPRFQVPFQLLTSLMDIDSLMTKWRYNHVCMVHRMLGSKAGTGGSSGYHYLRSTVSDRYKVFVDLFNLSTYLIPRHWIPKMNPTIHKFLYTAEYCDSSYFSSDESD
T3 sequence (P48775 whole entry): as above
T4 sequence (P14902 whole entry): as the sequence (P14902 whole entry) above

`CCOC(=O)c1n[nH]nc1-c1ccccc1` [Compound 2a, ethyl 5-phenyl-2H-1,2,3-triazole-4-carboxylate] gave a concentration for a half-maximal effect (EC50) on IDO1 [1] of 3.26 ± 0.045 µM. The inhibition at 0.032 µM at TDO enzyme (32 nM) is 9%; on IDO1 [2] (HPLC, 32 nM) it was 26%; in data set [3] (32 nM), 8%. In addition, the inhibition at 0.16 µM was determined as 39% on TDO enzyme (160 nM); 31% on IDO1 [2] (HPLC, 160 nM); 17% in data set [3] (160 nM). Further, the inhibition at 0.8 µM at TDO enzyme (800 nM) stood at 49%; on IDO1 [2] (HPLC, 800 nM) it was 35%; in data set [3] (800 nM), 19%. For the same molecule, the inhibition at 4 µM against TDO enzyme (4 µM) was determined as 68%; against IDO1 [2] (HPLC, 4 µM), 61%; in data set [3] (4 µM), 23%. Moreover, the inhibition at 20 µM at TDO enzyme (20 µM) was 68%; at IDO1 [2] (HPLC, 20 µM), 76%; in data set [3] (20 µM), 27%. Besides, the inhibition at 100 µM against TDO enzyme (100 µM) is 73%; against IDO1 [2] (HPLC, 100 µM) it was 81%; in data set [3] (100 µM), 34%. Moreover, the half-maximal inhibitory concentration (IC50) against IDO1 [2] (HPLC based IDO1 inhibition assay) amounted to 2.79 ± 0.066 µM; in data set [4] (purified human IDO1, spectrophotometric, mean of three independent assays, read-out: hIDO1 IC50), 14.4 ± 3.36 µM. In data set [4] (in comparison with lead compound 1a), the “fold stronger IDO1 inhibitory activity than 1a” value is on record as 6 fold.
As to `Oc1ccc(Cl)cc1-c1cnn[nH]1` [MMG-0358, 4-chloro-2-(1H-1,2,3-triazol-5-yl)phenol], the “IDO1 inhibitory activities, enzymatic assay” value in the data set with IDO1 [5] is on record as “nanomolar-level”. Further, the cytotoxicity result in data set [6] is on record as “low cytotoxicity”. Further, in the data set on IDO1 [7], the “IDO1 inhibitory activities, cellular assay” value was “nanomolar-level”.
Regarding `CCc1ccccc1Nc1cnn[nH]1` [N-(2-Ethylphenyl)-1H-1,2,3-triazol-5-amine], the “cellular IDO1 inhibitory activities” value in the data set with IDO1 [7] is given as “nanomolar-level”.

As usually defined, the EC50 is the concentration that produces a half-maximal response. By inhibition is commonly meant the percentage by which the read-out fell short of the control. Lower therefore signals a weak effect. In general, IC50 refers to the concentration at which inhibition is half-maximal.
